SMILES strings stand for the structures. Bounds are passed on as bounds.

In assay [1] the test system is COLO 205 colorectal tumor cells. Briefly: Tumor cell viability inhibition assay (CellTiter-Glo 2.0, 72 hours). Particulars: COLO 205 cell viability. It is filed as cell-based. In a few lines:
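COLO 205 cells (1500/well, RPMI-1640 + 10% FBS) exposed for 72 h to an 11-point, 4-fold dilution series; cellular ATP read by CellTiter-Glo 2.0 luminescence. Data normalized to DMSO and maximum-inhibition controls; IC50 from 4-parameter curve fit.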
In general terms: In ATP-based viability assays light output follows the ATP content of the culture.

Assay [2] has as its target T1, human eIF4E protein (Homo sapiens, UniProt P06730).
T1 construct: purchased Novus NBP-45314
Briefly: Biochemical competitive binding assay (TR-FRET competition, EDA-m7GDP-ATTO-647N probe). As to conditions: read-out: hEIF4E TR-FRET IC50. Put shortly:
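His-tagged human eIF4E (4 nM) was preincubated with Eu-anti-His antibody (2.5 nM) and added to compound (11-point, 4-fold dilutions) for 15 min. Then 5 nM EDA-m7GDP-ATTO-647N was added for 15 min, in HEPES pH 7.5, 100 mM KCl. The 665/620 TR-FRET ratio was normalized to controls, and IC50 was taken from 4-parameter fits.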

T1 sequence (P06730 whole entry): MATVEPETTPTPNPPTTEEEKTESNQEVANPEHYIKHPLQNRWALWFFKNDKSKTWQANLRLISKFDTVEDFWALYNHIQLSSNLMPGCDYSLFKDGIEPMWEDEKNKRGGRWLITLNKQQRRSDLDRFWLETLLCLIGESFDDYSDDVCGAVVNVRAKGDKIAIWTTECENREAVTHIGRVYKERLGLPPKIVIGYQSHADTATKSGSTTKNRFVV

What is called IC50 is the concentration that gives 50% inhibition. In the case of `Cc1cc(-c2cc(Cl)ccc2OCCn2c(C)nc3c(c2=O)C[C@H](NC24CC5CC(CC(C5)C2)C4)CC3)c2scc(C(=O)O)c2n1` (single isomer, unassigned) [Compound 412], the IC50 in assay [1] (Homo sapiens, COLO 205, 72 h) is less than 5 µM; in assay [2], less than 0.1 µM.

Regarding `Cc1cc(-c2cc(Cl)ccc2OCCn2c(C)nc3c(c2=O)C[C@@H](N2CCC[C@H](c4ncccc4F)C2)CC3)c2scc(C(=O)O)c2n1` (single isomer, unassigned) [Compound 467], the IC50 was less than 5 µM in assay [1] (Homo sapiens, COLO 205, 72 h) and less than 0.1 µM in assay [2].

As for `Cc1cc(-c2cc(Cl)ccc2OCCn2c(C)nc3c(c2=O)C[C@@H](N2CCC(n4cccn4)CC2)CC3)c2scc(C(=O)O)c2n1` (single isomer, unassigned) [Compound 474], the IC50 in assay [1] (Homo sapiens, COLO 205, 72 h) was less than 5 µM; in assay [2] it was less than 0.1 µM.

In the case of `Cc1cc(-c2cc(Cl)ccc2OCCn2c(C)nc3c(c2=O)C[C@H](N2CCC(c4ccccc4OC(F)(F)F)CC2)CC3)c2scc(C(=O)O)c2n1` (single isomer, unassigned) [Compound 571], the IC50 in assay [1] (Homo sapiens, COLO 205, 72 h) was less than 5 µM; in assay [2], less than 0.1 µM.

Regarding `Cc1csc([C@@H]2CCCN([C@@H]3CCc4nc(C)n(CCOc5ccc(Cl)cc5-c5cc(C)nc6c(C(=O)O)csc56)c(=O)c4C3)C2)n1` (single isomer, unassigned) [Compound 484], the IC50 was less than 5 µM in assay [1] (Homo sapiens, COLO 205, 72 h) and less than 0.1 µM in assay [2].

For the compound `Cc1cc(-c2cc(Cl)ccc2OCCn2c(C)nc3c(c2=O)C[C@H](N2CCO[C@@H](COC(F)(F)F)C2)CC3)c2scc(C(=O)O)c2n1` (single isomer, unassigned) [Compound 477], the IC50 in assay [1] (Homo sapiens, COLO 205, 72 h) is less than 5 µM; in assay [2], less than 0.1 µM.

On to `Cc1cc(-c2cc(Cl)ccc2OCCn2c(C)nc3c(c2=O)C[C@H](N2C[C@@H]4CC(F)(F)C[C@@H]4C2)CC3)c2scc(C(=O)NS(C)(=O)=O)c2n1` (single isomer, unassigned) [Compound 368], for which the IC50 in assay [1] (Homo sapiens, COLO 205, 72 h) is less than 5 µM; in assay [2] it was less than 0.1 µM.

As to `CO[C@@H]1CCN([C@@H]2CCc3nc(C)n(CCOc4ccc(Cl)cc4-c4cc(C)nc5c(C(=O)O)csc45)c(=O)c3C2)C[C@@H]1F` (single isomer, unassigned) [Compound 366], the IC50 was 5 to 20 µM in assay [1] (Homo sapiens, COLO 205, 72 h) and less than 0.1 µM in assay [2].

Regarding `CO[C@H]1CCN([C@H]2CCc3nc(C)n(CCOc4ccc(Cl)cc4-c4cc(C)nc5c(C(=O)O)csc45)c(=O)c3C2)CC1(C)C` (single isomer, unassigned) [Compound 378], the IC50 in assay [1] (Homo sapiens, COLO 205, 72 h) was less than 5 µM; in assay [2] it was less than 0.1 µM.

On to `Cc1cc(-c2cc(Cl)ccc2OCCn2c(C)nc3c(c2=O)C[C@@H](N2CCC[C@H](C(F)F)C2)CC32CC2)c2scc(C(=O)O)c2n1` (single isomer, unassigned) [Compound 610], for which the IC50 was less than 5 µM in assay [1] (Homo sapiens, COLO 205, 72 h) and less than 0.1 µM in assay [2].

With `CO[C@@H]1CCN([C@]2(C)CCc3nc(C)n(CCOc4ccc(Cl)cc4-c4cc(C)nc5c(C(=O)O)csc45)c(=O)c3C2)CC1(C)C` (single isomer, unassigned) [Compound 558], the IC50 in assay [1] (Homo sapiens, COLO 205, 72 h) was 5 to 20 µM; in assay [2], 0.1 to 0.5 µM.

On to `Cc1cc(-c2cc(Cl)ccc2OCCn2c(C)nc3c(c2=O)C[C@@H](N2CCC(Oc4ccc(F)cc4F)CC2)CC32CC2)c2scc(C(=O)O)c2n1` (single isomer, unassigned) [Compound 613], for which the IC50 in assay [1] (Homo sapiens, COLO 205, 72 h) is less than 5 µM; in assay [2] it was less than 0.1 µM.

Take `Cc1cc(-c2cc(Cl)ccc2OCCn2c(C)nc3c(c2=O)C[C@@H](N2CCC4(CC2)CC(F)(F)CO4)CC3)c2scc(C(=O)O)c2n1` (single isomer, unassigned) [Compound 490]: the IC50 in assay [1] (Homo sapiens, COLO 205, 72 h) is less than 5 µM; in assay [2], less than 0.1 µM.

In the case of `COC1CCN(C2(C)CCc3nc(C)n(CCOc4ccc(Cl)cc4-c4cc(C)nc5c(C(=O)O)csc45)c(=O)c3C2)CC1` (single isomer, unassigned) [Compound 497], the IC50 in assay [1] was greater than 20 µM; in assay [2] it was 0.1 to 0.5 µM.

On to `Cc1cc(-c2cc(Cl)ccc2OCCn2c(C)nc3c(c2=O)C[C@@H](N2C[C@H]4CC[C@@H]2CC4OC(F)(F)F)CC3)c2scc(C(=O)O)c2n1` (single isomer, unassigned) [Compound 502], for which the IC50 is less than 5 µM in assay [1] (Homo sapiens, COLO 205, 72 h) and less than 0.1 µM in assay [2].

For the compound `Cc1cc(-c2cc(Cl)ccc2OCCn2c(C)nc3c(c2=O)C[C@H](N2CCC(n4cccn4)CC2)CC3)c2scc(C(=O)O)c2n1` (single isomer, unassigned) [Compound 473], the IC50 in assay [1] (Homo sapiens, COLO 205, 72 h) was less than 5 µM; in assay [2], less than 0.1 µM.

`Cc1cc(-c2cc(Cl)c(=O)[nH]c2OCCn2c(C)nc3c(c2=O)CC(N(C)CC2CC(F)(F)C2)CC3)c2scc(C(=O)O)c2n1` (single isomer, unassigned) [Compound 237]: the IC50 in assay [1] (Homo sapiens, COLO 205, 72 h) was greater than 20 µM; in assay [2], 0.5 to 5 µM.

As to `Cc1cc(-c2cc(Cl)ccc2OCCn2c(C)nc3c(c2=O)C[C@@](C)(N2C[C@@H]4CC(F)(F)C[C@@H]4C2)CC3)c2scc(C(=O)O)c2n1` (stereo in doubt) [Compound 567], the IC50 in assay [1] (Homo sapiens, COLO 205, 72 h) was less than 5 µM; in assay [2], less than 0.1 µM.

Take `Cc1cc(-c2cc(Cl)ccc2OCCn2c(C)nc3c(c2=O)CC(N2CCC(C(F)(F)F)CC2)CC3)c2scc(C(=O)NS(C)(=O)=O)c2n1` (single isomer, unassigned) [Compound 433]: the IC50 in assay [1] is less than 5 µM; in assay [2] it was less than 0.1 µM.

As to `Cc1cc(-c2cc(Cl)ccc2OCCn2c(C)nc3c(c2=O)C[C@H](N2CCC[C@@]4(CN(CC(F)(F)F)CC4(F)F)C2)CC3)c2scc(C(=O)O)c2n1` (single isomer, unassigned) [Compound 513], the half-inhibitory concentration (IC50) in assay [1] (Homo sapiens, COLO 205, 72 h) was less than 5 µM; in assay [2], less than 0.1 µM.

Turning to `Cc1cc(-c2cc(Cl)ccc2OCCn2c(C)nc3c(c2=O)C[C@H](N2CCC(C(F)(F)F)CC2)CC32CC2)c2scc(C(=O)O)c2n1` (single isomer, unassigned) [Compound 602], the IC50 was less than 5 µM in assay [1] (Homo sapiens, COLO 205, 72 h) and less than 0.1 µM in assay [2].

For the compound `CO[C@@H]1CCN([C@H]2CCc3nc(C)n(CCOc4ccc(Cl)cc4-c4cc(C)nc5c(C(=O)O)csc45)c(=O)c3C2)C[C@@H]1F` (single isomer, unassigned) [Compound 367], the IC50 in assay [1] (Homo sapiens, COLO 205, 72 h) was less than 5 µM; in assay [2], less than 0.1 µM.

As for `Cc1cc(-c2cc(Cl)ccc2OCCn2c(C)nc3c(c2=O)C[C@H](N2CC[C@H](OC(F)(F)F)C(F)(F)C2)CC3)c2scc(C(=O)O)c2n1` (single isomer, unassigned) [Compound 404], the IC50 in assay [1] (Homo sapiens, COLO 205, 72 h) is 5 to 20 µM; in assay [2], less than 0.1 µM.

`Cc1cc(-c2cc(Cl)ccc2OCCn2c(C)nc3c(c2=O)CC(N2CCC(OC(F)(F)F)CC2)CC32CC2)c2scc(C(=O)O)c2n1` (single isomer, unassigned) [Compound 380, 7-(5-chloro-2-(2-(2′-methyl-4′-oxo-6′-(4-(trifluoromethoxy)piperidin-1-yl)-6′,7′-dihydro-4′H-spiro[cyclopropane-1,8′-quinazolin]-3′(5′H)-yl)ethoxy)phenyl)-5-methylthieno[3,2-b]pyridine-3-carboxylic acid]: the IC50 in assay [1] is less than 5 µM; in assay [2], less than 0.1 µM.

With `Cc1cc(-c2cc(Cl)ccc2OCCn2c(C)nc3c(c2=O)C[C@@H](N2CCO[C@@H](COC(F)(F)F)C2)CC3)c2scc(C(=O)O)c2n1` (single isomer, unassigned) [Compound 479], the IC50 is less than 5 µM in assay [1] (Homo sapiens, COLO 205, 72 h) and less than 0.1 µM in assay [2].

Consider `Cc1cc(-c2cc(Cl)ccc2OCCn2c(C)nc3c(c2=O)C[C@@H](N2CCC(c4ncccc4F)CC2)CC3)c2scc(C(=O)O)c2n1` (single isomer, unassigned) [Compound 445], for which the IC50 in assay [1] (Homo sapiens, COLO 205, 72 h) was less than 5 µM; in assay [2], less than 0.1 µM.

Consider `Cc1cc(-c2cc(Cl)ccc2OCCn2c(C)nc3c(c2=O)C[C@@H](N2CCC(c4cc(F)ccc4C(F)(F)F)CC2)CC3)c2scc(C(=O)O)c2n1` (single isomer, unassigned) [Compound 586], for which the IC50 was less than 5 µM in assay [1] (Homo sapiens, COLO 205, 72 h) and less than 0.1 µM in assay [2].

In the case of `Cc1cc(-c2cc(Cl)ccc2OCCn2c(C)nc3c(c2=O)CC(C)(N2CCC(OC(F)(F)F)CC2)CC3)c2scc(C(=O)O)c2n1` (single isomer, unassigned) [Compound 516], the IC50 was less than 5 µM in assay [1] and less than 0.1 µM in assay [2].

With `Cc1cc(-c2cc(Cl)ccc2OCCn2c(C)nc3c(c2=O)C[C@@H](N2CCC(C(F)(F)F)CC2)CC32CC2)c2scc(C(=O)O)c2n1` (single isomer, unassigned) [Compound 603], the IC50 in assay [1] (Homo sapiens, COLO 205, 72 h) is less than 5 µM; in assay [2] it was less than 0.1 µM.

As for `Cc1cc(-c2cc(Cl)ccc2OCCn2c(C)nc3c(c2=O)C[C@@H](N2CCC(N4CC(F)(F)C4)CC2)CC3)c2scc(C(=O)O)c2n1` (single isomer, unassigned) [Compound 110], the IC50 in assay [1] (Homo sapiens, COLO 205, 72 h) is 5 to 20 µM; in assay [2], less than 0.1 µM.

Regarding `Cc1cc(-c2cc(Cl)ccc2OCCn2c(C)nc3c(c2=O)C(C)(C)C(N)CC3)c2scc(C(=O)O)c2n1` (stereo not drawn) [Compound 123, 7-(2-(2-(6-amino-2,5,5-trimethyl-4-oxo-5,6,7,8-tetrahydroquinazolin-3(4H)-yl)ethoxy)-5-chlorophenyl)-5-methylthieno[3,2-b]pyridine-3-carboxylic acid], the IC50 in assay [1] (Homo sapiens, COLO 205, 72 h) is greater than 20 µM; in assay [2], 0.5 to 5 µM.

On to `COC1CCN(C2CCc3nc(C)n(CCOc4ccc(Cl)cc4-c4cc(C)nc5c(C(N)=O)csc45)c(=O)c3C2)CC1` (stereo not drawn) [Compound 133], for which the IC50 in assay [1] (Homo sapiens, COLO 205, 72 h) was 5 to 20 µM; in assay [2], 0.1 to 0.5 µM.

For the compound `Cc1cc(-c2cc(Cl)ccc2OCCn2c(C)nc3c(c2=O)C[C@H](N2CC[C@H](OC(F)(F)F)C2)CC3)c2scc(C(=O)O)c2n1` (single isomer, unassigned) [Compound 386], the IC50 is less than 5 µM in assay [1] (Homo sapiens, COLO 205, 72 h) and less than 0.1 µM in assay [2].

The values above are taken from patent publication US20240246918A1, “COMPOUNDS AND COMPOSITIONS AS EIF4E INHIBITORS AND THE USES THEREOF” (Ribometrix, Inc., priority 2022, published 2024).
